The target of one assay is Adenosine kinase (Homo sapiens, UniProt P55263).
The target of assay [1] is Serine/threonine-protein kinase B-raf (Homo sapiens, UniProt P15056).
In assay [2] the target is Dual specificity tyrosine-phosphorylation-regulated kinase 1A (Homo sapiens, UniProt Q13627).
The target in assay [3] is Fibroblast growth factor receptor 1 (Homo sapiens, UniProt P11362).
The target in a further assay is T1, Glycine--tRNA ligase (Homo sapiens, UniProt P41250).
T1 sequence (P41250 whole entry): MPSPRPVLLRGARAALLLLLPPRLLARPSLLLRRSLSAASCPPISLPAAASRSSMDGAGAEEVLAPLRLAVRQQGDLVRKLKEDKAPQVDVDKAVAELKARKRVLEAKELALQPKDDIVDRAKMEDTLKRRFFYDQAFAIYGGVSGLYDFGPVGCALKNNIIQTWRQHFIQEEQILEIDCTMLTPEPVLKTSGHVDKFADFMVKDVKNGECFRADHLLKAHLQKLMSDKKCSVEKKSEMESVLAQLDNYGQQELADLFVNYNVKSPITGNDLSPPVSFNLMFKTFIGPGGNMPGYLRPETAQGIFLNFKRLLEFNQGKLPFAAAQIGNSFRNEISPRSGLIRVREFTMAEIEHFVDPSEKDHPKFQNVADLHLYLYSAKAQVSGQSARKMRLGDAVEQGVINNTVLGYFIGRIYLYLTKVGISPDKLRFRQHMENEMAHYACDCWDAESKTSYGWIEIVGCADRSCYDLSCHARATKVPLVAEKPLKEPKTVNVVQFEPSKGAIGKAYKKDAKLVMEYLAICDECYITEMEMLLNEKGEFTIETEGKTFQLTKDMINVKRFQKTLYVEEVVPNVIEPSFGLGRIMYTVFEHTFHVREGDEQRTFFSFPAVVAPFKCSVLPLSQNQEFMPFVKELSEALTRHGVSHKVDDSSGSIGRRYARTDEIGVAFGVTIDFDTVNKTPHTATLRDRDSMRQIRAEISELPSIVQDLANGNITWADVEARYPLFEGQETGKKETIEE

Assay [4] deals with T2, Mitogen-activated protein kinase 15 (Homo sapiens, UniProt Q8TD08).
T2 sequence (Q8TD08 whole entry): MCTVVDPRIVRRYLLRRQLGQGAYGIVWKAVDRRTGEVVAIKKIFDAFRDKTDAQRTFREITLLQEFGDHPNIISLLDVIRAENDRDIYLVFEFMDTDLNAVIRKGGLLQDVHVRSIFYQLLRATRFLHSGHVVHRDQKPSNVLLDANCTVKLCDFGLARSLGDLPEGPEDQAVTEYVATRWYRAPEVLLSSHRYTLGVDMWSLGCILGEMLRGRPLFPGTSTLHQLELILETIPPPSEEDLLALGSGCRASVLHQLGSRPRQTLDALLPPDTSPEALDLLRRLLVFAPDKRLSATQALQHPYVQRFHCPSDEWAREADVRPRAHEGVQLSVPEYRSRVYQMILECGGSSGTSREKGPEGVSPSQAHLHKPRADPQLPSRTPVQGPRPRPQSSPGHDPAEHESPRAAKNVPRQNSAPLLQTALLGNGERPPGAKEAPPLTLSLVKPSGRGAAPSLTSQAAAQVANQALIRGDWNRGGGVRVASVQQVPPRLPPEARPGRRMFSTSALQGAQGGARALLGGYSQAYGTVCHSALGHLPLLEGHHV

The target in assay [5] is Mitogen-activated protein kinase 3 (Homo sapiens, UniProt P27361).
Sequence of Mitogen-activated protein kinase 3 (P27361 whole entry): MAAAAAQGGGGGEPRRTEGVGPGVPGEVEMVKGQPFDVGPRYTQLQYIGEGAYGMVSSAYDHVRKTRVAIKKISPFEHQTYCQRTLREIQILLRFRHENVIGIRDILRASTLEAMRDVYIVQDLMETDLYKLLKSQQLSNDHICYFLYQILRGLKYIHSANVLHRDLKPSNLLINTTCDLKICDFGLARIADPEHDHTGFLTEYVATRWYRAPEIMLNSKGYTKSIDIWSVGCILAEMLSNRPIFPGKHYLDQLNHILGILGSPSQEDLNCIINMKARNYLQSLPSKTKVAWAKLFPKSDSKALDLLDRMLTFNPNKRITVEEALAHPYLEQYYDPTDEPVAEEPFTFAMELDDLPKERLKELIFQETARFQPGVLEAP
The target of the next assay is Midasin (Homo sapiens, UniProt Q9NU22).
For assay [6], the target named is T3, cGMP-dependent protein kinase 1 (Homo sapiens, UniProt Q13976).
T3 sequence (Q13976 whole entry): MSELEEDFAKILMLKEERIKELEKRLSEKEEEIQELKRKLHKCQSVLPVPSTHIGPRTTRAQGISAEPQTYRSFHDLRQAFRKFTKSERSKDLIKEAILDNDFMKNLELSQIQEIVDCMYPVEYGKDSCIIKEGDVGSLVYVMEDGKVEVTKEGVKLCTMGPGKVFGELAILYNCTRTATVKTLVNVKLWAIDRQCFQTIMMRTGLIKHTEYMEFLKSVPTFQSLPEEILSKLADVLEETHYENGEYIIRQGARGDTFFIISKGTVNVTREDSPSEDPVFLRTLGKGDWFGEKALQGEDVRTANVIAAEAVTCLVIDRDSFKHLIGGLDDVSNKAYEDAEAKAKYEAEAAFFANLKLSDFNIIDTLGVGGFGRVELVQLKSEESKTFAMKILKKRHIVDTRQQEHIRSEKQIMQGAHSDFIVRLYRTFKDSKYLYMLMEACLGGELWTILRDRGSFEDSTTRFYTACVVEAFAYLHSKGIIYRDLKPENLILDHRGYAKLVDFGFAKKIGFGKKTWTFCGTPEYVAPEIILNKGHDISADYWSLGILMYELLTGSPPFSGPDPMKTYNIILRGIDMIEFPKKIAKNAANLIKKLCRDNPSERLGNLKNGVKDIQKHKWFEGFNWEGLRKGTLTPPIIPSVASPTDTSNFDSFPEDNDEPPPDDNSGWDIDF

The target in assay [7] is Ribosomal protein S6 kinase alpha-1 (Homo sapiens, UniProt Q15418).
Sequence of Ribosomal protein S6 kinase alpha-1 (Q15418 whole entry): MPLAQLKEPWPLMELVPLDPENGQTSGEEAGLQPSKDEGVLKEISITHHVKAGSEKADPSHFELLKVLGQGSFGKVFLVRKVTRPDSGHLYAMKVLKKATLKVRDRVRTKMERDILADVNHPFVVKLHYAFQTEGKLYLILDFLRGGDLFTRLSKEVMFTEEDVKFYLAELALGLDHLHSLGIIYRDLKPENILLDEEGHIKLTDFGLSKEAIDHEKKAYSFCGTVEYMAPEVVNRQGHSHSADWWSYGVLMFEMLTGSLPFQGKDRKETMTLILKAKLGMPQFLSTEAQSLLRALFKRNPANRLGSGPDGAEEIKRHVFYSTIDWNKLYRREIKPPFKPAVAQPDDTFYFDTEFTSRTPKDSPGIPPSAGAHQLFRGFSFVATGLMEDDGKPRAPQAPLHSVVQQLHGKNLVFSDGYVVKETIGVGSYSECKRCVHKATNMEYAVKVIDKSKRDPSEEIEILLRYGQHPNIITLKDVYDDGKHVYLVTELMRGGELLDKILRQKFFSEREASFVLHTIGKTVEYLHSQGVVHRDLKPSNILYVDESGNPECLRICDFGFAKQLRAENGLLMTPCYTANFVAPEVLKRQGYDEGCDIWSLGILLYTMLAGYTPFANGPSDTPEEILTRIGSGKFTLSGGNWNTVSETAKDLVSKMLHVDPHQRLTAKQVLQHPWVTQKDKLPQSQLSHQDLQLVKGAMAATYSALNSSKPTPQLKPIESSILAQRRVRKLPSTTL

Each structure is given as a SMILES string. pKd: −log10 of the molar value. Active and inactive are the calls of the source.
Also: in the data inactive means no Kd found up to 30 µM.

Sequence of Fibroblast growth factor receptor 1 (P11362 whole entry): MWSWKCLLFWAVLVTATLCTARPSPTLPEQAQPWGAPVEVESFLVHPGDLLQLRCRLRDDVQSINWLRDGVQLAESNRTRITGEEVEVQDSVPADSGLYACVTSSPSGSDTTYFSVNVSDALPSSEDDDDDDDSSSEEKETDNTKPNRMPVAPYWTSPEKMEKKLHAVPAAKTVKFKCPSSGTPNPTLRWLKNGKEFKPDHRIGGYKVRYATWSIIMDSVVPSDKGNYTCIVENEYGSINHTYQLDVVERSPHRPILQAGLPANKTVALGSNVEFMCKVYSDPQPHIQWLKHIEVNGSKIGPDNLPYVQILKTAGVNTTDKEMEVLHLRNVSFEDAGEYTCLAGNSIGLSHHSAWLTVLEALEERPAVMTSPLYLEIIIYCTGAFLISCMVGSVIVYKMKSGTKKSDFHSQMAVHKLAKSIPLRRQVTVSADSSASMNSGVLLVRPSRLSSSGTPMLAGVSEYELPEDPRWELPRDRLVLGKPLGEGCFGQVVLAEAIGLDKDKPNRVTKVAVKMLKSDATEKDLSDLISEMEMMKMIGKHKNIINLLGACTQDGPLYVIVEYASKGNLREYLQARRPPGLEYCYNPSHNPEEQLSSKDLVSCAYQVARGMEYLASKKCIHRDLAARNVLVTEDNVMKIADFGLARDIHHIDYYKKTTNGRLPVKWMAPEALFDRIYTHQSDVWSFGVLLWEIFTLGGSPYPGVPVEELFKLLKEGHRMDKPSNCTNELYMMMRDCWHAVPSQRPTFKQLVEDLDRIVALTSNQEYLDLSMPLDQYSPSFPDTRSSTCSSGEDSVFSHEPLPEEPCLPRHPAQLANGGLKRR
Sequence of Serine/threonine-protein kinase B-raf (P15056 whole entry): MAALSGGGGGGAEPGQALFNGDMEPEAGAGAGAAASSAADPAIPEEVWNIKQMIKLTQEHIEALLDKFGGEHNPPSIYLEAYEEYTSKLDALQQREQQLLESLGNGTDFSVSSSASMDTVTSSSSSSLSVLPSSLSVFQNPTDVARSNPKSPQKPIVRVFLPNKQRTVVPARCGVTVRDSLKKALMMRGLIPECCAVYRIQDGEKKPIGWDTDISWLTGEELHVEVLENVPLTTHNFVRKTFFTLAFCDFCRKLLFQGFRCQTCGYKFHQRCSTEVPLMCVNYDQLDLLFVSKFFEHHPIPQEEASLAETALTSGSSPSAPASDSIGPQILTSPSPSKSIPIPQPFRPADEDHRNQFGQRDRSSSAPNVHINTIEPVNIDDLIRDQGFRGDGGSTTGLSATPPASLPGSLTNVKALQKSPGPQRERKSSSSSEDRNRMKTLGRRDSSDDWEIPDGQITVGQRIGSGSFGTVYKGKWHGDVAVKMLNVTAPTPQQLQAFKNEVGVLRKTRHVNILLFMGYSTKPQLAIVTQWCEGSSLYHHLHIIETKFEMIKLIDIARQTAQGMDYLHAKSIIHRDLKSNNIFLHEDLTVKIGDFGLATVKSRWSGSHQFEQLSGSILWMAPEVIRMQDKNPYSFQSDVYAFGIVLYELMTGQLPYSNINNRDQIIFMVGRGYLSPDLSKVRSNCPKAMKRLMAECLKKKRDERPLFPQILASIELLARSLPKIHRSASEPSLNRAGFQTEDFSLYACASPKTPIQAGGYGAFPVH
Sequence of Adenosine kinase (P55263 whole entry): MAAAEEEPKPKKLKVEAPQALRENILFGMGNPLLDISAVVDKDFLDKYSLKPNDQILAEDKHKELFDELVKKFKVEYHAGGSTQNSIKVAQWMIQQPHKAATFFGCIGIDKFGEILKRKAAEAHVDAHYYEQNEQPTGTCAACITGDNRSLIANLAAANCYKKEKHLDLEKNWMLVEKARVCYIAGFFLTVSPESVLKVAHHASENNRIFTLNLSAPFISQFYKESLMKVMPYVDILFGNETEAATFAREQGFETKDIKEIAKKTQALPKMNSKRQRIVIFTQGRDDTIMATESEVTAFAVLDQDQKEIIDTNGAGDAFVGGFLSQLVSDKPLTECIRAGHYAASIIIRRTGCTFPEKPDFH

By Kd is commonly meant the equilibrium constant for the complex coming apart. As for `COc1cccc(Nc2ncnn3ccc(CN4CC[C@@H](N)[C@H](O)C4)c23)c1` [BMS-690514], the Kd at Adenosine kinase is > 30 µM (inactive); in [1], > 30 µM (inactive); in assay [2], 3.29 µM (active); in [3] it was > 30 µM (inactive); on Glycine--tRNA ligase, > 30 µM (inactive); in [4], > 30 µM (inactive). Besides, the Kd (in assay [5]; on Midasin; in assay [6]; in assay [7]) was > 30 µM (inactive) each time.

For the compound `Cn1c(=O)c(F)c(Nc2ccc(I)cc2F)c2c(=O)n(C[C@@H](O)CO)cnc21` [TAK-733], the Kd (at Adenosine kinase; in assay [1]; in assay [2]; in assay [3]; on Glycine--tRNA ligase; in assay [4]) was > 30 µM (inactive) throughout. Besides, the Kd (in [5]; at Midasin; in [6]; in [7]) was > 30 µM (inactive) throughout.

On to `COc1cc(Nc2ncc(F)c(Nc3ccc4c(n3)N(COP(=O)(O)O)C(=O)C(C)(C)O4)n2)cc(OC)c1OC` [FOSTAMATINIB], for which the Kd (on Adenosine kinase; in assay [1]; in assay [2]; in [3]; at Glycine--tRNA ligase; in assay [4]) was > 30 µM (inactive) in each case. In addition, the Kd (in [5]; at Midasin; in assay [6]; in assay [7]) was > 30 µM (inactive) in each case.

As for `C#Cc1cccc(Nc2ncnc3cc4c(cc23)OCCOCCOCCO4)c1` [ICOTINIB], the Kd (at Adenosine kinase; in assay [1]; in assay [2]; in assay [3]; at Glycine--tRNA ligase; in assay [4]) was > 30 µM (inactive) each time. Further, the Kd (in [5]; on Midasin; in assay [6]; in [7]) was > 30 µM (inactive) throughout.

What is called pKd is the Kd on a negative log10 scale, so that one unit is a factor of ten. A high value points to a low Kd. Regarding `Cn1cc(-c2[nH]c3cc(NC(=O)[C@H](N)C4CCCCC4)cc4c3c2C=NNC4=O)cn1`, the Kd is > 30 µM (inactive) on Adenosine kinase; > 30 µM (inactive) in [1]; > 30 µM (inactive) in assay [2]; 0.192 µM (active) in [3]; > 30 µM (inactive) at Glycine--tRNA ligase; > 30 µM (inactive) in [4]. Further, the Kd in assay [5] was 3.21 µM (active); on Midasin, > 30 µM (inactive); in assay [6], > 30 µM (inactive). Also, the pKd in assay [7] was 5.28.

With `FC(F)(F)c1ccc(CNc2ccc(Cc3c[nH]c4ncc(Cl)cc34)cn2)cn1` [PEXIDARTINIB], the Kd (at Adenosine kinase; in assay [1]; in [2]; in assay [3]; on Glycine--tRNA ligase; in [4]) was > 30 µM (inactive) in each case. The Kd (in assay [5]; at Midasin; in assay [6]; in assay [7]) was > 30 µM (inactive) in each case.

Take `CCc1nc(C(N)=O)c(Nc2ccc(N3CCC(N4CCN(C)CC4)CC3)c(OC)c2)nc1NC1CCOCC1` [GILTERITINIB]: the Kd (at Adenosine kinase; in assay [1]; in assay [2]; in assay [3]; at Glycine--tRNA ligase; in [5]) was > 30 µM (inactive) throughout. Besides, the Kd on Midasin is > 30 µM (inactive); in assay [6], > 30 µM (inactive); in assay [7], 3.44 µM (active). In assay [4], this compound gave a pKd of 6.58.

Consider `COc1cc(F)c(F)c(Nc2ccc(I)cc2F)c1NS(=O)(=O)C1(C[C@H](O)CO)CC1` [REFAMETINIB], for which the Kd (on Adenosine kinase; in assay [1]; in assay [2]; in [3]; on Glycine--tRNA ligase; in [4]) was > 30 µM (inactive) each time. Also, the Kd (in assay [5]; on Midasin; in assay [6]; in [7]) was > 30 µM (inactive) each time.

For `CCc1cc2c(cc1N1CCC(N3CCOCC3)CC1)C(C)(C)c1[nH]c3cc(C#N)ccc3c1C2=O` [ALECTINIB], the Kd (on Adenosine kinase; in assay [1]; in assay [2]; in [3]; on Glycine--tRNA ligase; in assay [4]) was > 30 µM (inactive) each time. The Kd (in [5]; at Midasin; in assay [6]; in [7]) was > 30 µM (inactive) throughout.

For the compound `COc1cc2ncnc(Nc3ccc(F)c(Cl)c3)c2cc1NC(=O)/C=C/CN1CCCCC1` [DACOMITINIB ANHYDROUS], the Kd (on Adenosine kinase; in [1]; in assay [2]; in assay [3]; on Glycine--tRNA ligase; in assay [4]) was > 30 µM (inactive) each time. In addition, the Kd (in assay [5]; on Midasin; in assay [6]; in assay [7]) was > 30 µM (inactive) each time.

For the compound `Cc1c(NC(=O)OC[C@@H]2COCCN2)cn2ncnc(Nc3ccc4c(cnn4Cc4cccc(F)c4)c3)c12` [AC-480], the Kd (on Adenosine kinase; in assay [1]; in assay [2]; in [3]; on Glycine--tRNA ligase; in [4]) was > 30 µM (inactive) each time. The Kd (in [5]; on Midasin; in [6]; in assay [7]) was > 30 µM (inactive) in each case.

Turning to `Cc1cc(-c2cc(OC(=O)c3ccccc3)ccc2Cl)cc2nnc(Nc3ccc(OCCN4CCCC4)cc3)nc12` [TG100-801], the Kd (at Adenosine kinase; in [1]; in assay [2]; in assay [3]; on Glycine--tRNA ligase; in [4]) was > 30 µM (inactive) throughout. For the same compound, the Kd (in assay [5]; at Midasin; in [6]; in assay [7]) was > 30 µM (inactive) each time.
